Data published in patent publication US12351580B2, “NLRP3 modulators” (Innate Tumor Immunity, Inc., priority 2017, dated 2025).

target: T1, hNLRP3 (Homo sapiens, UniProt Q96P20); experiment: Measurement of IL-1β production in PMA-differentiated THP-1 cells (hNLRP3 agonist; ELISA, alternative and hTRF procedures); type: cell-based
T1 construct: THP-1 cells were purchased from the American Type Culture Collection; host or cells: THP-1 cells, PMA-differentiated
Method: Measurement of IL-1β production in PMA-differentiated THP-1 cells THP-1 cells were purchased from the American Type Culture Collection and sub-cultured according to instructions from the supplier. Prior to experiments, cells were cultured in RPMI 1640 containing 10% heat inactivated FBS, penicillin (100 units/ml) and streptomycin (100 μg/ml), and maintained in log phase prior to experimental setup. Prior to the experiment THP-1 were treated with PMA (Phorbol 12-myristate 13-acetate) ([…]) for 24 hours. The day of the experiment the media was removed and attaching cells were treated with trypsin for 2 minutes, cells were then collected, washed with PBS (phosphate buffer saline), spin down, resuspended in 2% heat inactivated FBS with RPMI at a concentration of 1×10^6 cells/ml, and 100 μl was plated in a 96 well plate. Compounds were dissolved in dimethyl sulfoxide (DMSO) and added to the culture medium to achieve desired concentration (e.g. 100, 30, 10, 3, 1, 0.3 or 0.1 μM). Cells were incubated with compounds for 4 hours. Cell free supernatant was collected and the production of […] was evaluated by ELISA. A vehicle only control was run concurrently with each experiment. Final DMSO concentration was 1%.
Measurement of IL-1β Production in PMA-Differentiated THP-1 Cells (Alternative Procedure)
THP-1 cells were purchased from the American Type Culture Collection and sub-cultured according to instructions from the supplier. Prior to experiments, cells were cultured in RPMI 1640 containing 10% heat inactivated FBS, penicillin (100 units/ml), streptomycin (100 μg/ml), HEPES (10 mM) and sodium pyruvate (1 mM) and maintained in log phase prior to experimental setup. Prior to the experiment, THP-1 cells were treated with PMA (Phorbol 12-myristate 13-acetate) (20 μg/ml) overnight. The day of the experiment, the media was removed and attached cells were treated with trypsin for 2 minutes, cells were then collected, washed with PBS (phosphate buffer saline), pelleted by centrifugation and resuspended in 2% heat inactivated FBS with RPMI at a concentration of 50,000 cells/well in a 384 well plate. Cell free supernatant was collected and the production of IL-1β was evaluated by ELISA. Compounds were dissolved in dimethyl sulfoxide (DMSO) and added to the culture medium to achieve desired concentration (e.g. 100, 30, 10, 3, 1, 0.3 or 0.1 μM). Cells were incubated with compounds for 2 hours. A vehicle only control was run concurrently with each experiment. Final DMSO concentration was 1%.
Measurement of IL-1β Production—hTRF Protocol (Second Alternative Procedure)
Serial dilutions of compounds in DMSO were added to low volume 384 well plates at 100 nl/well using an ECHO 550 acoustic dispenser (Labcyte) to achieve final starting concentration of 10 μM in assay.
THP-1 cells in RPMI (Gibco, 11875) media with 10% FBS at a density of 1×10^6 cell/ml in a T175 flask were treated with a final concentration of phorbol 12-myristate 13-acetate (PMA) (Sigma, P1585) of 50 ng/ml overnight at 37° C. at 5% CO2 for differentiation. Cells were harvested the next day after rinsing well with dPBS using 0.5% trypsin. A cell solution was prepared of 1×10^6 cells/ml for 50,000 cells in 50 μl/well in RPMI media with 2% FBS. Cells were plated using a multichannel pipette onto the compound dilutions in Greiner, 384 well, black clear bottom tissue culture treated plates (781090). The plates were incubated in 37° C. incubator at 5% CO2 for 2 hours.
After the 2 hour incubation, the cell plates were spun in the centrifuge for 5 minutes at 1200 rpm. Using the Felix (CyBio), 8 μl of the supernatant was transferred to 384 well, low volume, white proxy plates. (Perkin Elmer, 6008230). A human IL1beta hTRF kit was used to analyze the supernatant (CISBIO, 62HIL1BPEG). The kit instructions were followed for preparing the IL1Beta standard curve and then the antibodies from the kit were diluted 1:40 rather than 1:20 as kit instructed.

T1 sequence (Q96P20 whole entry): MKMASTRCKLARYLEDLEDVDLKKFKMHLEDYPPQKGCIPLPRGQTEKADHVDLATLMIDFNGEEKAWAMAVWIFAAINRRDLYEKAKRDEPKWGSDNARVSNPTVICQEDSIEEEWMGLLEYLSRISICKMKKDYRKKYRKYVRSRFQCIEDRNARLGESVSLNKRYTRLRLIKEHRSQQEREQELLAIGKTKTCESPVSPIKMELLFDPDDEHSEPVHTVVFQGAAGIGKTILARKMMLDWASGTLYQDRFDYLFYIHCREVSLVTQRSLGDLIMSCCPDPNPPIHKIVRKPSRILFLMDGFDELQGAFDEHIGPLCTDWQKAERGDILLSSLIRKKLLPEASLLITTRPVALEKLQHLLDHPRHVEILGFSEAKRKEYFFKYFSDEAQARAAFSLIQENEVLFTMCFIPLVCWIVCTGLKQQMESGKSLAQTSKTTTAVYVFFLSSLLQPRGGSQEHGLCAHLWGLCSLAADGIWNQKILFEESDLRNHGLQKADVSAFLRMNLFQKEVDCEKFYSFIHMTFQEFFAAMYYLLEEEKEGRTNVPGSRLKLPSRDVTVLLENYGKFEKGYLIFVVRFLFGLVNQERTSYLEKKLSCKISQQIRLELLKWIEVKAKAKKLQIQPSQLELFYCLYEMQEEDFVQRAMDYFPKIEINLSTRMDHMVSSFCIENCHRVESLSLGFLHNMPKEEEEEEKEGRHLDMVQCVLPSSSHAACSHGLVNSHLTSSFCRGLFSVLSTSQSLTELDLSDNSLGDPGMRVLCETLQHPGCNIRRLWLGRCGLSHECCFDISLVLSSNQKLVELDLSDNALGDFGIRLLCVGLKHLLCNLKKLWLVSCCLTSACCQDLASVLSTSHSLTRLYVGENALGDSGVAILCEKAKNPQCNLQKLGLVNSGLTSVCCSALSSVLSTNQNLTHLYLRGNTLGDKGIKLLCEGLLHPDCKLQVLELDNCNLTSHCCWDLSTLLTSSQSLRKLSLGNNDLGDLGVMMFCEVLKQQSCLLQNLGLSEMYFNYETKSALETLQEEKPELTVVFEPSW

SMILES | EC50
COC(=O)CCCn1c(CN2CCCC2=O)nc2c(N)nc3cc(Cl)ccc3c21 [Compound 216] | 6.6 µM
CCN(Cc1nc2c(N)nc3cc(Cl)ccc3c2n1CCCC(=O)NC)C(C)=O [Compound 217] | 96 µM
CCN(Cc1nc2c(N)nc3cc(Br)ccc3c2n1CCCC(=O)OC)C(C)=O [Compound 218] | 1.2 µM
CCN(Cc1nc2c(N)nc3cc(Cl)ccc3c2n1CCCC(=O)OC)C(C)=O [Compound 219] | 2 µM
CCN(Cc1nc2c(N)nc3cc(Cl)ccc3c2n1CCCC(=O)N1CCOCC1)C(C)=O [Compound 220] | 51 µM
CCN(Cc1nc2c(N)nc3cc(Cl)ccc3c2n1CCCC(=O)N1CCN(C)CC1)C(C)=O [Compound 221] | 85 µM
CCN(Cc1nc2c(N)nc3cc(Cl)ccc3c2n1CCCC(=O)N1CCCC1)C(C)=O [Compound 222] | 42 µM
CCN(Cc1nc2c(N)nc3ccccc3c2n1CCC(=O)N1CCS(=O)(=O)CC1)C(=O)OC(C)(C)C [Compound 223] | 77 µM
CCNCc1nc2c(N)nc3cc(Br)ccc3c2[nH]1 [Compound 225] | 10.9 µM
CCN(Cc1nc2c(N)nc3cc(C(F)(F)F)ccc3c2n1CCCC(=O)NC)C(=O)OC(C)(C)C [Compound 226] | 85 µM
CCNCc1nc2c(N)nc3cc(C(F)(F)F)ccc3c2n1CCCC(=O)OC [Compound 227] | 22.7 µM
CCN(Cc1nc2c(N)nc3cc(C(F)(F)F)ccc3c2n1CCCC(=O)N1CCOCC1)C(=O)OC(C)(C)C [Compound 228] | 93 µM
CCN(Cc1nc2c(N)nc3cc(C(F)(F)F)ccc3c2n1CCCC(=O)OC)C(C)=O [Compound 229] | 12.3 µM
COc1ccc(-c2ccc3c(c2)nc(N)c2nc(CN4CCCC4=O)[nH]c23)cc1 [Compound 230] | 4.5 µM
CC(=O)NCc1nc2c(N)nc3ccccc3c2[nH]1 [Compound 233] | 120 µM
Nc1nc2ccccc2c2[nH]c(CN3CCCC3=O)nc12 [Compound 278] | 10.8 µM
Nc1nc2cc(-c3cccnc3)ccc2c2[nH]c(CN3CCCC3=O)nc12 [Compound 279, 1-[(4-amino-7-pyridin-3-yl-1H-imidazo[4,5-c]quinolin-2-yl)methyl]pyrrolidin-2-one] | 7.5 µM
Nc1nc2cc(-c3ccccc3)ccc2c2[nH]c(CN3CCCC3=O)nc12 [Compound 280, 1-[(4-amino-7-phenyl-1H-imidazo[4,5-c]quinolin-2-yl)methyl]pyrrolidin-2-one] | 0.22 µM

SMILES | EC50
Nc1nc2cc(-c3ccccc3Cl)ccc2c2[nH]c(CN3CCCC3=O)nc12 [Compound 281, 1-[[4-amino-7-(2-chlorophenyl)-1H-imidazo[4,5-c]quinolin-2-yl]methyl]pyrrolidin-2-one] | 1.4 µM
Cc1ccccc1-c1ccc2c(c1)nc(N)c1nc(CN3CCCC3=O)[nH]c12 [Compound 282, 1-[[4-amino-7-(2-methylphenyl)-1H-imidazo[4,5-c]quinolin-2-yl]methyl]pyrrolidin-2-one] | 4.8 µM
COc1ccccc1-c1ccc2c(c1)nc(N)c1nc(CN3CCCC3=O)[nH]c12 [Compound 283, 1-[[4-amino-7-(2-methoxyphenyl)-1H-imidazo[4,5-c]quinolin-2-yl]methyl]pyrrolidin-2-one] | 6.5 µM
Nc1nc2cc(-c3ccccc3F)ccc2c2[nH]c(CN3CCCC3=O)nc12 [Compound 284, 1-[[4-amino-7-(2-fluorophenyl)-1H-imidazo[4,5-c]quinolin-2-yl]methyl]pyrrolidin-2-one] | 0.86 µM
Nc1nc2cc(-c3cccc(Cl)c3)ccc2c2[nH]c(CN3CCCC3=O)nc12 [Compound 285, 1-[[4-amino-7-(3-chlorophenyl)-1H-imidazo[4,5-c]quinolin-2-yl]methyl]pyrrolidin-2-one] | 5.7 µM
Cc1cccc(-c2ccc3c(c2)nc(N)c2nc(CN4CCCC4=O)[nH]c23)c1 [Compound 286, 1-[[4-amino-7-(3-methylphenyl)-1H-imidazo[4,5-c]quinolin-2-yl]methyl]pyrrolidin-2-one] | 0.61 µM
COc1cccc(-c2ccc3c(c2)nc(N)c2nc(CN4CCCC4=O)[nH]c23)c1 [Compound 287, 1-[[4-amino-7-(3-methoxyphenyl)-1H-imidazo[4,5-c]quinolin-2-yl]methyl]pyrrolidin-2-one] | 1.08 µM
N#Cc1cccc(-c2ccc3c(c2)nc(N)c2nc(CN4CCCC4=O)[nH]c23)c1 [Compound 288, 3-[4-amino-2-[(2-oxopyrrolidin-l-yl)methyl]-1H-imidazo[4,5-c]quinolin-7-yl]benzonitrile] | 10.1 µM
Nc1nc2cc(-c3cccc(F)c3)ccc2c2[nH]c(CN3CCCC3=O)nc12 [Compound 289, 1-[[4-amino-7-(3-fluorophenyl)-1H-imidazo[4,5-c]quinolin-2-yl]methyl]pyrrolidin-2-one] | 1.58 µM
Cc1ccc(-c2ccc3c(c2)nc(N)c2nc(CN4CCCC4=O)[nH]c23)cc1 [Compound 291, 1-[[4-amino-7-(4-methylphenyl)-1H-imidazo[4,5-c]quinolin-2-yl]methyl]pyrrolidin-2-one] | 0.11 µM
Nc1nc2cc(Br)ccc2c2[nH]c(CN3CCCC3=O)nc12 [Compound 294, 1-[(4-amino-7-bromo-1H-imidazo[4,5-c]quinolin-2-yl)methyl]pyrrolidin-2-one] | 4.6 µM
Nc1nc2cc(-n3cccn3)ccc2c2[nH]c(CN3CCCC3=O)nc12 [Compound 295, 1-[(4-amino-7-pyrazol-1-yl-1H-imidazo[4,5-c]quinolin-2-yl)methyl]pyrrolidin-2-one] | 1.2 µM
Cc1cnn(-c2ccc3c(c2)nc(N)c2nc(CN4CCCC4=O)[nH]c23)c1 [Compound 296, 1-[[4-amino-7-(4-methylpyrazol-1-yl)-1H-imidazo[4,5-c]quinolin-2-yl]methyl]pyrrolidin-2-one] | 5.1 µM
Nc1nc2cc(C3CCOCC3)ccc2c2[nH]c(CN3CCCC3=O)nc12 [Compound 298, 1-[[4-amino-7-(oxan-4-yl)-1H-imidazo[4,5-c]quinolin-2-yl]methyl]pyrrolidin-2-one] | 21 µM
Cc1ccn(-c2ccc3c(c2)nc(N)c2nc(CN4CCCC4=O)[nH]c23)n1 [Compound 301, 1-[[4-amino-7-(3-methylpyrazol-1-yl)-1H-imidazo[4,5-c]quinolin-2-yl]methyl]pyrrolidin-2-one] | 2.93 µM
Nc1nc2cc(C3CCCCC3)ccc2c2[nH]c(CN3CCCC3=O)nc12 [Compound 302, 1-[(4-amino-7-cyclohexyl-1H-imidazo[4,5-c]quinolin-2-yl)methyl]pyrrolidin-2-one] | 0.93 µM
CC(c1nc2c(N)nc3cc(Br)ccc3c2[nH]1)N1CCCC1=O (centres unmarked) [Compound 303, 1-[1-(4-amino-7-bromo-1H-imidazo[4,5-c]quinolin-2-yl)ethyl]pyrrolidin-2-one] | 11.1 µM
